Experimental data from ChEMBL document CHEMBL4118170, “Alkylsulfanyl analogs as potent α2δ ligands” (Bioorg Med Chem Lett, 2018).

What was measured:
[1] = Clearance in mouse at 10 mg/kg, po or 5 mg/kg, iv; assay type: ADME, organism-based; settings: in vivo
[2] = biological target: Voltage-dependent calcium channel subunit alpha-2/delta-1 (Homo sapiens) (UniProt P54289); assay: Displacement of [3H]gabapentin from human voltage-gated Ca2+ channel alpha2delta1 subunit expressed in HEK293A cell membranes after 30 mins by liquid scintillation counting method
Sequence of Voltage-dependent calcium channel subunit alpha-2/delta-1 (Homo sapiens) (P54289 25-956 limits assumed): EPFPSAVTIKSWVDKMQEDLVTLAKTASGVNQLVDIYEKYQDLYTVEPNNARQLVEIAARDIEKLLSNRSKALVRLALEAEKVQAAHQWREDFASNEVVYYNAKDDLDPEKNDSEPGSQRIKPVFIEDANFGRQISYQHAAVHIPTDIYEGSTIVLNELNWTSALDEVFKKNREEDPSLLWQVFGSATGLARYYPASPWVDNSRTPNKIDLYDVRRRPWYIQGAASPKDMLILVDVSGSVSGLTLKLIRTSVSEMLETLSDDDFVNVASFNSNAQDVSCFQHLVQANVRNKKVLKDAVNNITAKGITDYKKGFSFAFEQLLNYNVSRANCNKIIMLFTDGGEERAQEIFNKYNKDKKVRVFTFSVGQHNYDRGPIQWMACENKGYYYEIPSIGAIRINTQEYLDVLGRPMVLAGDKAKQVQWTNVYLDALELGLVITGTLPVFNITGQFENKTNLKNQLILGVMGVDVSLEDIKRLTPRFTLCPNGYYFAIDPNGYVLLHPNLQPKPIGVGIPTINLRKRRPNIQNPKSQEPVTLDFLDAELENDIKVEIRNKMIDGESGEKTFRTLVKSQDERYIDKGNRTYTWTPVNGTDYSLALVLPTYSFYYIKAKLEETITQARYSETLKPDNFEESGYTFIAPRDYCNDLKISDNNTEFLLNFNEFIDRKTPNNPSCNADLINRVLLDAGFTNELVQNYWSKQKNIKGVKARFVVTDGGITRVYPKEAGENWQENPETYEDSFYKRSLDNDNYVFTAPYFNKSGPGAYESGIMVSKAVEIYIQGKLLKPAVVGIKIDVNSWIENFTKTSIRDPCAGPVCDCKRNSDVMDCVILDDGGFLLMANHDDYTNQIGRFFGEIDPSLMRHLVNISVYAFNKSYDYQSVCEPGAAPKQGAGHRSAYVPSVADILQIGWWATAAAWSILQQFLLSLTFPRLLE
Sequence of Voltage-dependent calcium channel subunit alpha-2/delta-1 (Homo sapiens) (P54289 957-1103 limits assumed): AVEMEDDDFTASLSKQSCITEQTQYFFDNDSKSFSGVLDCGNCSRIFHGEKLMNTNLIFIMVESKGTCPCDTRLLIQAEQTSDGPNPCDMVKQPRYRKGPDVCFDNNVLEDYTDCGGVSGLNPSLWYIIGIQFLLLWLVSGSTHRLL

[3] = tested on: Mus musculus; assay: AUC in mouse at 10 mg/kg, po or 5 mg/kg, iv; assay type: ADME, organism-based; settings: in vivo
[4] = Cmax in mouse at 10 mg/kg, po or 5 mg/kg, iv; assay type: ADME, organism-based; settings: in vivo
[5] = Half life in mouse at 10 mg/kg, po or 5 mg/kg, iv; assay type: ADME, organism-based; settings: in vivo
[6] = Oral bioavailability in mouse at 10 mg/kg; assay type: ADME, organism-based; settings: in vivo
[7] = tested on: Mus musculus; assay: Analgesic activity in db/db mouse mechanical hyperalgesia model assessed as reversal of mechanical hyperalgesia at 100 mg/kg, po pretreated for 2 hrs by Von Frey test relative to control; assay type: functional
[8] = tested on: Rattus norvegicus; assay: Analgesic activity in STZ-induced diabetic rat model assessed as pain threshold AUC (0 to 8 hrs) at 10 mg/kg, po by Von Frey test; assay type: functional, organism-based; design: dose 10 mg/kg, time < 8 hr
[9] = tested on: Mus musculus; assay: Effect on motor coordination in mouse at 30 mg/kg, po measured over 120 secs at 2 hrs post drug administration by rota rod test; assay type: ADME, organism-based; settings: in vivo
[10] = tested on: Mus musculus; assay: Effect on motor coordination in mouse at 100 mg/kg, po measured over 120 secs at 2 hrs post drug administration by rota rod test; assay type: ADME, organism-based; settings: in vivo
[11] = tested on: Rattus norvegicus; assay: Analgesic activity in STZ-induced diabetic rat model assessed as pain threshold AUC (0 to 8 hrs) at 30 mg/kg, po by Von Frey test; assay type: functional, organism-based; design: time < 8 hr, dose 30 mg/kg
[12] = tested on: Rattus norvegicus; assay: Analgesic activity in STZ-induced diabetic rat model assessed as pain threshold AUC (0 to 8 hrs) at 50 mg/kg, po by Von Frey test; assay type: functional, organism-based; design: time < 8 hr, dose 50 mg/kg

Compound CS[C@H](C)C[C@H](CN)CC(=O)O has a clearance [1] of 17.5 mL/min/kg, a displacement potency (concentration) [2] of 620 nM and an AUC [3] of 9980 ng·h/mL. For the same compound, the Cmax [4] was 6220 ng/mL, the half-life [5] was 4.52 h and the bioavailability [6] was 100%. The Activity [7] was 4%.
Compound CS[C@@H](C)C[C@@H](CN)CC(=O)O has a clearance [1] of 23.8 mL/min/kg, a displacement potency (concentration) [2] of 290 nM and an AUC [3] of 3020 ng·h/mL. The Cmax [4] was 1610 ng/mL, the half-life [5] was 5.8 h and the bioavailability [6] was 45%. It also gave an Activity [7] of 0%.
COCCC(CN)CC(=O)O (racemic) showed a displacement potency (concentration) [2] of 240 nM and an Activity [7] of 17%.
With CSCC(C)C(CN)CC(=O)O (centres undefined) the displacement potency (concentration) [2] was 150 nM and the Activity [7] was 2%.
CSCCC(CN)CC(=O)O (racemic) gave a displacement potency (concentration) [2] of 480 nM and an Activity [7] of 12%.
In the case of COCC(C)C(CN)CC(=O)O (centres undefined), the displacement potency (concentration) [2] is reported as 160 nM and the Activity [7] is reported as 10%.
With CC(C)SCC(CN)CC(=O)O (centres undefined) the displacement potency (concentration) [2] was 19000 nM.
CSC(C)CC(CN)CC(=O)O (mixture of isomers) gave a displacement potency (concentration) [2] of 170 nM and an Activity [7] of 64%.
Compound CSC(C)C(CN)CC(=O)O (centres undefined) has a displacement potency (concentration) [2] of 240 nM and an Activity [7] of 9%.
Work on CSCC(CN)CC(=O)O (racemic) yielded a displacement potency (concentration) [2] of 1000 nM and an Activity [7] of 9%.
CCSCC(CN)CC(=O)O (racemic) showed a displacement potency (concentration) [2] of 1900 nM.
In the case of CCSC(C)CC(CN)CC(=O)O (centres undefined), the displacement potency (concentration) [2] is reported as 200 nM and the Activity [7] is reported as 43%.
With CS[C@H](C)C[C@@H](CN)CC(=O)O the clearance [1] was 31.7 mL/min/kg, the displacement potency (concentration) [2] was 720 nM and the AUC [3] was 5800 ng·h/mL. For the same compound, the Cmax [4] was 3590 ng/mL, the half-life [5] was 4.42 h and the bioavailability [6] was 100%. The Activity [7] was 3%.
Work on CC(C)C[C@H](CN)CC(=O)O [PREGABALIN] yielded a clearance [1] of 7.77 mL/min/kg, a displacement potency (concentration) [2] of 39 nM and an AUC [3] of 18900 ng·h/mL. The AUC [8] was 5.8 to 17 g·h, the Activity [9] was “Toxic” and the Cmax [4] was 1340 ng/mL. The Activity [10] was “Toxic”, the half-life [5] was 2.54 h and the bioavailability [6] was 88%. It also gave an AUC [11] of 18 to 27 g·h and an Activity [7] of 98%.
CS[C@@H](C)C[C@H](CN)CC(=O)O gave a clearance [1] of 17.6 mL/min/kg, a displacement potency (concentration) [2] of 48 nM and an AUC [3] of 12500 ng·h/mL. For the same compound, the AUC [12] was 18 g·h, the Activity [9] was “Non-Toxic” and the Cmax [4] was 5190 ng/mL. The Activity [10] was “Toxic”, the half-life [5] was 2.4 h and the bioavailability [6] was 100%. It also gave an AUC [11] of 10 g·h and an Activity [7] of 80%.
For CCS[C@@H](C)C[C@H](CN)CC(=O)O, the clearance [1] was 5.78 mL/min/kg, the displacement potency (concentration) [2] was 20 nM and the AUC [3] was 8140 ng·h/mL. For the same compound, the AUC [8] was 6.3 g·h, the Activity [9] was “Toxic” and the Cmax [4] was 5610 ng/mL. The Activity [10] was “Toxic”, the half-life [5] was 2.09 h and the bioavailability [6] was 28%. It also gave an AUC [11] of 19 g·h and an Activity [7] of 90%.
In the case of COC(C)CC(CN)CC(=O)O (centres undefined), the displacement potency (concentration) [2] is reported as 410 nM and the Activity [7] is reported as 4%.
Compound COCC(CN)CC(=O)O (racemic) has a displacement potency (concentration) [2] of 3200 nM.
For CCS[C@H](C)C[C@H](CN)CC(=O)O, the displacement potency (concentration) [2] was 290 nM and the Activity [7] was 3%.
With CCOC(C)CC(CN)CC(=O)O (centres undefined) the displacement potency (concentration) [2] was 970 nM and the Activity [7] was 22%.
